In patent US11364242B2, “Treatment agents for inhibiting HIV and cancer in HIV infected patients” (UNIVERSITY OF MARYLAND, BALTIMORE, priority 2015, dated 2022):

Key:
CCR5 = test: Flow cytometry quantitation of surface receptor on PBLs; settings: IL-2, 7 days, three donors
[1] = tested on: full-length unspliced HIV mRNA; test: RT-PCR of unspliced HIV mRNA in U1 cells; type: cell-based; settings: 10 nM PMA, 2 days
Procedure: FIG. 6 is a bar graph that depicts how INK128 inhibits HIV transcription in U1 cells. U1 cells were cultured in the presence of 10 nM PMA and the indicated concentrations of INK128. After 2 days, cells were collected, mRNA isolated, quantified, reverse transcribed and amplified by real time PCR using unspliced HIV cDNA primer pair US.1a/US.2a and housekeeping [beta]-actin primers. For quantification, standard curves for unspliced HIV cDNA and [beta]-actin sequences were generated by performing 10-fold serial dilutions of mRNA isolated from PBLs acutely infected with HIV BaL. PCR amplification was performed using Quantitect® SYBR Green PCR Kit in a LightCycler®. Negative controls consisted of mixture reactions without the reverse transcription step according to an embodiment.
Total cellular RNA was isolated using the Qiagen™ RNA Isolation Kit (Qiagen™) RNA was then treated with DNase I, Amplification Grade (Invitrogen™), and reverse transcribed with SuperScript III First-Strand Synthesis Supermix™ (Invitrogen™) using hexamer primers. An aliquot of the cDNA was used as a template for PCR amplification of full length, unspliced HIV cDNA using primers US.1a and US.2a, and another aliquot for amplification with primer pairs specific for housekeeping [beta]-actin sequences (63).
The effects of INK128 on activation of HIV in the chronically HIV-infected U1 cell line were examined. […]

R5 HIV BaL = test: PBL infectivity assay, p24 ELISA day 7; type: cell-based, HIV-1; settings: Human immunodeficiency virus 1, BAL; PBLs from three donors
Source text: (§1) PBLs were isolated from buffy coats of HIV seronegative donors (New York Blood Center). The laboratory-adapted strains HIV BaL and HIV HXB2; primary isolates HIV 92BR020, 92UG031, 93BR029, and 93UG082; and multidrug resistant molecular clone NL4329129-2 were obtained from the NIH AIDS Repository. Primary isolate 2044 was from Paul Clapham (Windeyer Institute), and 1633 and 1638 from the Institute of Human Virology (University of Maryland School of Medicine). Maraviroc, efavirenz, raltegravir, and indinavir were from the NIH AIDS Repository. INK128 was purchased from ApexBio. Proliferation of PBLs was measured by the MTT kit (Roche), following the manufacturer's directions. PBL infectivity assays were performed as described herein.
(§2) PBLs were separated from buffy coats by density centrifugation over Ficoll-Hypaque (Sigma™), and activated by culture in the presence of 1 μg/mL anti-human CD3 antibody (clone x35, Fisher Scientific™) and 2 μg/mL anti-human CD28 antibody (Clone CD28.6, eBioscience™) for 3 days. Activated cells were infected by incubation with virus at a multiplicity of infection (MOI) of 0.001 for 2 hours. […] On day 7, viral replication was measured by p24 ELISA (Coulter) in culture supernatants and cell viability was measured by MTT assays.
(§3) EC50 values were determined by variable slope nonlinear regression analysis. […]

X4 HIV HXB2 = test: PBL infectivity assay, p24 ELISA day 7; type: cell-based, HIV-1; settings: Human immunodeficiency virus 1, HXB2; PBLs from three donors
Source text: as §1, §2, §3

X4 HIV (HXB2) = test: Real-time PCR of early reverse transcription products and integrated HIV DNA in infected PBLs; type: cell-based; settings: PBLs from two donors
Procedure: Activated PBLs were infected with R5 and X4 HIV strains using a MOI of 0.01. Infected cells were cultured in the presence of IL-2 and different concentrations of INK128. Cell aliquots were collected at 16 and 72 hours for analyses of early products of reverse transcription and of integration, respectively, by real time PCR. Detection of early products of reverse transcription was done with primers specific for the R/U5 region (60). For detection of integrated HIV DNA, a real-time nested Alu-HIV PCR assay was used as previously described (61, 62), with the modifications described herein.
DNA was isolated using Miniblood kit (Qiagen™). PCR amplification was performed using Quantitect SYBR Green™ PCR Kit (Qiagen™) in a LightCycler™ (Biorad™). Detection of early products of reverse transcription was done in reactions containing 100 ng of DNA and the primer pair 5′-[…]-3′ (SEQ ID NO. 1) and 5′-[…]-3′ (SEQ ID NO. 2) (R/U5 region) (60). […] Amplified products were analyzed by denaturation/renaturation to verify the specific Tm. The PCR cycle at which the signal entered the exponential range was used for quantification, and HIV copy numbers were corrected for those of α-tubulin. […] As a standard curve for relative quantification of integrated DNA, the Alu-gag was first run using serial dilutions of DNA isolated from HIV infected PBLs (diluted in HIV-negative DNA).

Compound: CC(C)n1nc(-c2ccc3oc(N)nc3c2)c2c(N)ncnc21 [INK128, 5-(4-amino-1-propan-2-ylpyrazolo[3,4-d]pyrimidin-3-yl)-1,3-benzoxazol-2-amine]
- percentages of CCR5 expressing cells (CCR5; CD4+ and CD8+ T cell subsets): reduced
- CCR5 receptor density (molecules/cell) (CCR5): decreased
- synthesis of full-length unspliced HIV mRNA [1]: inhibits synthesis
- EC50 (R5 HIV BaL): 10.5 nM
- EC50 (X4 HIV HXB2): 38 nM
- R/U5 transcripts (X4 HIV (HXB2); 16 hours): did not decrease
- integrated provirus (X4 HIV (HXB2); 72 hours): did not decrease
